# Data reported in patent US10004701B2, “Methods and compositions for treating infection” (UNIVERSITY OF ROCHESTER, priority 2012, dated 2018).
# Tests used:
# Assay in all cases: AK assay 384-well format, Prestwick library screening
# [1] = system: E. faecium; format: cell-based, Enterococcus faecium; settings: 50 μM final drug concentration; for AK-based Prestwick Library Screening Results: E. faecium (increase in extracellular AK activity): 384-well
# [2] = system: S. aureus strain USA300-0114; format: cell-based, Staphylococcus aureus; settings: 50 μM final drug concentration; for AK-based Prestwick Library Screening Results: S. aureus (increase in extracellular AK activity): 384-well
# [3] = system: K. pneumoniae; format: cell-based, Klebsiella pneumoniae; settings: 50 μM final drug concentration; for AK-based Prestwick Library Screening Results: K. pneumoniae (increase in extracellular AK activity): 384-well
# [4] = system: A. baumannii strain 98-37-09; format: cell-based, Acinetobacter baumannii; settings: 50 μM final drug concentration; for AK-based Prestwick Library Screening Results: A. baumannii (increase in extracellular AK activity): 384-well
# [5] = system: P. aeruginosa; format: cell-based, Pseudomonas aeruginosa; settings: 50 μM final drug concentration; for AK-based Prestwick Library Screening Results: P. aeruginosa (increase in extracellular AK activity): 384-well
# [6] = system: E. cloacae; format: cell-based, Enterobacter cloacae; settings: 50 μM final drug concentration; for AK-based Prestwick Library Screening Results: E. cloacae (increase in extracellular AK activity): 384-well
# [7] = system: E. coli; format: cell-based, Escherichia coli; settings: 50 μM final drug concentration; for AK-based Prestwick Library Screening Results: E. coli (increase in extracellular AK activity): 384-well; for AK-based Prestwick Library Screening Results: E. coli (increase in extracellular AK activity) / AK-based Prestwick Library Screening Results, E. coli (increase in extracellular AK activity): cutoff for positive-scoring molecules 3-fold increase
# [8] = planktonic, cutoff for positive 3-fold increase
# [9] = planktonic, cutoff for positive-scoring molecules 3-fold increase
# [10] = planktonic E. faecium, cutoff for positive-scoring molecules 3-fold increase
# [11] = planktonic S. aureus, cutoff for positive-scoring molecules 3-fold increase
# [12] = planktonic K. pneumoniae, cutoff for positive-scoring molecules 3-fold increase
# [13] = planktonic A. baumannii, cutoff for positive-scoring molecules 3-fold increase
# [14] = planktonic P. aeruginosa, cutoff for positive-scoring molecules 3-fold increase
# [15] = planktonic E. cloacae, cutoff for positive-scoring molecules 3-fold increase
# [16] = 384-well format, cutoff for positive-scoring molecules 3-fold increase
substance,measurement,setting,value
Eburnamonine (−),"AK-based Prestwick Library Screening Results, E. faecium (fold increase in extracellular AK activity)",[1]; [8],1.1
same,"AK-based Prestwick Library Screening Results, S. aureus (fold increase in extracellular AK activity)",[2]; [8],1.0
same,"AK-based Prestwick Library Screening Results, K. pneumoniae (fold increase in extracellular AK activity)",[3]; [8],1.0
same,"AK-based Prestwick Library Screening Results, A. baumannii (fold increase in extracellular AK activity)",[4]; [8],1.1
same,"AK-based Prestwick Library Screening Results, P. aeruginosa (fold increase in extracellular AK activity)",[5]; [8],1.3
same,"AK-based Prestwick Library Screening Results, E. cloacae (fold increase in extracellular AK activity)",[6]; [8],1.4
same,"AK-based Prestwick Library Screening Results, E. coli (fold increase in extracellular AK activity)",[7]; [8],1.2
Foliosidine,"AK-based Prestwick Library Screening Results, E. faecium (fold increase in extracellular AK activity)",[1]; [9],0.9
same,"AK-based Prestwick Library Screening Results, S. aureus (fold increase in extracellular AK activity)",[2]; [9],0.7
same,"AK-based Prestwick Library Screening Results, K. pneumoniae (fold increase in extracellular AK activity)",[3]; [9],0.8
same,"AK-based Prestwick Library Screening Results, A. baumannii (fold increase in extracellular AK activity)",[4]; [9],0.8
same,"AK-based Prestwick Library Screening Results, P. aeruginosa (fold increase in extracellular AK activity)",[5]; [9],0.8
same,"AK-based Prestwick Library Screening Results, E. cloacae (fold increase in extracellular AK activity)",[6]; [9],1.0
same,"AK-based Prestwick Library Screening Results, E. coli (fold increase in extracellular AK activity)","[7]; planktonic, […]",0.9
Guanadrel sulfate,"AK-based Prestwick Library Screening Results, E. faecium (fold increase in extracellular AK activity)","[1]; planktonic, […]",1.0
same,"AK-based Prestwick Library Screening Results, S. aureus (fold increase in extracellular AK activity)","[2]; planktonic, […]",1.2
same,"AK-based Prestwick Library Screening Results, K. pneumoniae (fold increase in extracellular AK activity)","[3]; planktonic, […]",0.7
same,"AK-based Prestwick Library Screening Results, A. baumannii (fold increase in extracellular AK activity)","[4]; planktonic, […]",1.0
same,"AK-based Prestwick Library Screening Results, P. aeruginosa (fold increase in extracellular AK activity)","[5]; planktonic, […]",1.1
same,"AK-based Prestwick Library Screening Results, E. cloacae (fold increase in extracellular AK activity)","[6]; planktonic, […]",1.4
same,"AK-based Prestwick Library Screening Results, E. coli (fold increase in extracellular AK activity)","[7]; planktonic, […]",1.3
Ifenprodil tartrate,AK-based Prestwick Library Screening Results: E. faecium (increase in extracellular AK activity),[1]; [10],1.0
same,AK-based Prestwick Library Screening Results: S. aureus (increase in extracellular AK activity),[2]; [11],1.1
same,AK-based Prestwick Library Screening Results: K. pneumoniae (increase in extracellular AK activity),[3]; [12],1.3
same,AK-based Prestwick Library Screening Results: A. baumannii (increase in extracellular AK activity),[4]; [13],1.4
same,AK-based Prestwick Library Screening Results: P. aeruginosa (increase in extracellular AK activity),[5]; [14],1.2
same,AK-based Prestwick Library Screening Results: E. cloacae (increase in extracellular AK activity),[6]; [15],1.3
same,AK-based Prestwick Library Screening Results: E. coli (increase in extracellular AK activity),[7]; planktonic E. coli,1.2
Iobenguane sulfate,"AK-based Prestwick Library Screening Results, E. faecium (increase in extracellular AK activity)",[1]; [10],0.9
same,"AK-based Prestwick Library Screening Results, S. aureus (increase in extracellular AK activity)",[2]; [11],0.5
same,"AK-based Prestwick Library Screening Results, K. pneumoniae (increase in extracellular AK activity)",[3]; [12],0.5
same,"AK-based Prestwick Library Screening Results, A. baumannii (increase in extracellular AK activity)",[4]; [13],0.5
same,"AK-based Prestwick Library Screening Results, P. aeruginosa (increase in extracellular AK activity)",[5]; [14],0.4
same,"AK-based Prestwick Library Screening Results, E. cloacae (increase in extracellular AK activity)",[6]; [15],0.6
same,"AK-based Prestwick Library Screening Results, E. coli (increase in extracellular AK activity)",[7]; planktonic E. coli,0.5
Iproniazide phosphate,"AK-based Prestwick Library Screening Results, E. faecium (increase in extracellular AK activity)",[1]; [16],1.0
same,"AK-based Prestwick Library Screening Results, S. aureus (increase in extracellular AK activity)",[2]; [16],1.0
same,"AK-based Prestwick Library Screening Results, K. pneumoniae (increase in extracellular AK activity)",[3]; [16],0.7
same,"AK-based Prestwick Library Screening Results, A. baumannii (increase in extracellular AK activity)",[4]; [16],0.7
same,"AK-based Prestwick Library Screening Results, P. aeruginosa (increase in extracellular AK activity)",[5]; [16],0.7
same,"AK-based Prestwick Library Screening Results, E. cloacae (increase in extracellular AK activity)",[6]; [16],0.8
same,"AK-based Prestwick Library Screening Results, E. coli (increase in extracellular AK activity)",[7]; 384-well format,0.8
Isoetharine mesylate salt,"AK-based Prestwick Library Screening Results, E. faecium (fold increase in extracellular AK activity)","[1]; planktonic, […]",0.9
same,"AK-based Prestwick Library Screening Results, S. aureus (fold increase in extracellular AK activity)","[2]; planktonic, […]",0.6
same,"AK-based Prestwick Library Screening Results, K. pneumoniae (fold increase in extracellular AK activity)","[3]; planktonic, […]",1.4
same,"AK-based Prestwick Library Screening Results, A. baumannii (fold increase in extracellular AK activity)","[4]; planktonic, […]",0.8
same,"AK-based Prestwick Library Screening Results, P. aeruginosa (fold increase in extracellular AK activity)","[5]; planktonic, […]",0.6
same,"AK-based Prestwick Library Screening Results, E. cloacae (fold increase in extracellular AK activity)","[6]; planktonic, […]",0.9
same,"AK-based Prestwick Library Screening Results, E. coli (fold increase in extracellular AK activity)","[7]; planktonic, […]",0.9
Ketanserin tartrate hydrate,"AK-based Prestwick Library Screening Results, E. faecium (fold increase in extracellular AK activity)",[1]; [8],1.0
same,"AK-based Prestwick Library Screening Results, S. aureus (fold increase in extracellular AK activity)",[2]; [8],1.0
same,"AK-based Prestwick Library Screening Results, K. pneumoniae (fold increase in extracellular AK activity)",[3]; [8],1.0
same,"AK-based Prestwick Library Screening Results, A. baumannii (fold increase in extracellular AK activity)",[4]; [8],1.2
same,"AK-based Prestwick Library Screening Results, P. aeruginosa (fold increase in extracellular AK activity)",[5]; [8],1.0
same,"AK-based Prestwick Library Screening Results, E. cloacae (fold increase in extracellular AK activity)",[6]; [8],1.4
same,"AK-based Prestwick Library Screening Results, E. coli (fold increase in extracellular AK activity)",[7]; [8],1.3
Lycorine hydrochloride,"AK-based Prestwick Library Screening Results, E. faecium (fold increase in extracellular AK activity)","[1]; planktonic, […]",1.0
same,"AK-based Prestwick Library Screening Results, S. aureus (fold increase in extracellular AK activity)","[2]; planktonic, […]",1.4
same,"AK-based Prestwick Library Screening Results, K. pneumoniae (fold increase in extracellular AK activity)","[3]; planktonic, […]",0.8
same,"AK-based Prestwick Library Screening Results, A. baumannii (fold increase in extracellular AK activity)","[4]; planktonic, […]",1.0
same,"AK-based Prestwick Library Screening Results, P. aeruginosa (fold increase in extracellular AK activity)","[5]; planktonic, […]",1.1
same,"AK-based Prestwick Library Screening Results, E. cloacae (fold increase in extracellular AK activity)","[6]; planktonic, […]",1.5
same,"AK-based Prestwick Library Screening Results, E. coli (fold increase in extracellular AK activity)","[7]; planktonic, […]",1.0
Mephentermine hemisulfate,"AK-based Prestwick Library Screening Results, E. faecium (fold increase in extracellular AK activity)","[1]; planktonic, […]",0.8
same,"AK-based Prestwick Library Screening Results, S. aureus (fold increase in extracellular AK activity)","[2]; planktonic, […]",0.4
same,"AK-based Prestwick Library Screening Results, K. pneumoniae (fold increase in extracellular AK activity)","[3]; planktonic, […]",0.5
same,"AK-based Prestwick Library Screening Results, A. baumannii (fold increase in extracellular AK activity)","[4]; planktonic, […]",0.4
same,"AK-based Prestwick Library Screening Results, P. aeruginosa (fold increase in extracellular AK activity)","[5]; planktonic, […]",0.4
same,"AK-based Prestwick Library Screening Results, E. cloacae (fold increase in extracellular AK activity)","[6]; planktonic, […]",0.4
same,"AK-based Prestwick Library Screening Results, E. coli (fold increase in extracellular AK activity)","[7]; planktonic, […]",0.5
Pizotifen malate,"AK-based Prestwick library screening result, E. faecium (fold increase in extracellular AK activity)","[1]; planktonic E. faecium, positive cutoff 3-fold increase",1.0
same,"AK-based Prestwick library screening result, S. aureus (fold increase in extracellular AK activity)","[2]; planktonic S. aureus, positive cutoff 3-fold increase",0.7
same,"AK-based Prestwick library screening result, K. pneumoniae (fold increase in extracellular AK activity)","[3]; planktonic K. pneumoniae, positive cutoff 3-fold increase",0.7
same,"AK-based Prestwick library screening result, A. baumannii (fold increase in extracellular AK activity)","[4]; planktonic A. baumannii, positive cutoff 3-fold increase",0.8
same,"AK-based Prestwick library screening result, P. aeruginosa (fold increase in extracellular AK activity)","[5]; planktonic P. aeruginosa, positive cutoff 3-fold increase",0.8
same,"AK-based Prestwick library screening result, E. cloacae (fold increase in extracellular AK activity)","[6]; planktonic E. cloacae, positive cutoff 3-fold increase",1.3
same,"AK-based Prestwick library screening result, E. coli (fold increase in extracellular AK activity)","[7]; planktonic E. coli, positive cutoff 3-fold increase",1.0
Pridinol methanesulfonate salt,"AK-based Prestwick Library Screening Results, E. faecium (fold increase in extracellular AK activity)",[1]; […],1.1
same,"AK-based Prestwick Library Screening Results, S. aureus (fold increase in extracellular AK activity)",[2]; […],1.2
same,"AK-based Prestwick Library Screening Results, K. pneumoniae (fold increase in extracellular AK activity)",[3]; […],0.9
same,"AK-based Prestwick Library Screening Results, A. baumannii (fold increase in extracellular AK activity)",[4]; […],1.1
same,"AK-based Prestwick Library Screening Results, P. aeruginosa (fold increase in extracellular AK activity)",[5]; […],1.1
same,"AK-based Prestwick Library Screening Results, E. cloacae (fold increase in extracellular AK activity)",[6]; […],1.6
same,"AK-based Prestwick Library Screening Results, E. coli (fold increase in extracellular AK activity)",[7]; […],1.1
Pyrantel tartrate,AK-based Prestwick Library Screening Results: E. faecium (increase in extracellular AK activity),[1]; [10],1.1
same,AK-based Prestwick Library Screening Results: S. aureus (increase in extracellular AK activity),[2]; [11],1.2
same,AK-based Prestwick Library Screening Results: K. pneumoniae (increase in extracellular AK activity),[3]; [12],0.9
same,AK-based Prestwick Library Screening Results: A. baumannii (increase in extracellular AK activity),[4]; [13],1.1
same,AK-based Prestwick Library Screening Results: P. aeruginosa (increase in extracellular AK activity),[5]; [14],1.2
same,AK-based Prestwick Library Screening Results: E. cloacae (increase in extracellular AK activity),[6]; [15],1.4
same,AK-based Prestwick Library Screening Results: E. coli (increase in extracellular AK activity),[7]; planktonic E. coli,1.3
Retrorsine,"AK-based Prestwick Library Screening Results, E. faecium (fold increase in extracellular AK activity)","[1]; planktonic, […]",1.0
same,"AK-based Prestwick Library Screening Results, S. aureus (fold increase in extracellular AK activity)","[2]; planktonic, […]",1.2
same,"AK-based Prestwick Library Screening Results, K. pneumoniae (fold increase in extracellular AK activity)","[3]; planktonic, […]",1.2
same,"AK-based Prestwick Library Screening Results, A. baumannii (fold increase in extracellular AK activity)","[4]; planktonic, […]",1.2
same,"AK-based Prestwick Library Screening Results, P. aeruginosa (fold increase in extracellular AK activity)","[5]; planktonic, […]",1.2
same,"AK-based Prestwick Library Screening Results, E. cloacae (fold increase in extracellular AK activity)","[6]; planktonic, […]",1.5
same,"AK-based Prestwick Library Screening Results, E. coli (fold increase in extracellular AK activity)","[7]; planktonic, […]",1.3
